Reference: patent US7932289B2, “Remedy for diabetes” (Takeda Pharmaceutical Company Limited, priority 2004, dated 2011)

Tested on: type 2 diabetic rats with sulfonylurea secondary failure (N-STZ-1.5 rat)
Conditions: for Increment of plasma insulin level: 0 to 10 minutes after oral glucose loading (1 g/kg); for Increment of plasma insulin level / Increment of plasma glucose level: drug 10 mg/kg orally 30 min before glucose, male N-STZ-1.5 rats made glibenclamide-refractory, mean, n=6; for Increment of plasma glucose level: 0 to 60 minutes after oral glucose loading (1 g/kg); for plasma glucose level lowering effect / plasma insulin level increasing effect: in words, type 2 diabetic rats with sulfonylurea secondary failure, 10 mg/kg orally; for plasma glucose level lowering effect: summary of Table 1; for plasma insulin level increasing effect: summary of Table 2
Protocol: Streptozocin (STZ) (120 mg/kg body weight) was administered to a 1.5-day-old male WKY rat to prepare a type 2 diabetes model N-STZ-1.5 rat.
Glibenclamide (10 mg/kg body weight/day) was orally administered to the N-STZ-1.5 rats (male, 18 rats) every day for 4 consecutive weeks.
At 30 min after the administration, 1 g/kg body weight of a glucose solution was orally administered to each rat, and blood samples were collected from the rat tail vein before administration of the glucose solution and at 10, 30, 60 and 120 minutes after administration of the glucose solution, and the plasma glucose level and plasma insulin level were measured.
The plasma glucose level was measured using an L type Wako Glu2 (trade name, Wako Pure Chemical Industries, Ltd.) according to an enzyme method, and the plasma insulin level was measured using a SHIONORIA insulin kit (trade name, Shionogi & Co., Ltd.) by a radioimmunoassay.
In the Tables, the values show mean values (n=6).

COc1ccc(Cl)cc1C(=O)NCCc1ccc(S(=O)(=O)NC(=O)NC2CCCCC2)cc1 [glibenclamide]
Increment of plasma insulin level: 29.37 μU/ml
Increment of plasma glucose level: 178.40 mg/dL
plasma glucose level lowering effect: failed to show a plasma glucose level lowering effect
plasma insulin level increasing effect: hardly showed a plasma insulin level increasing effect

Cc1cccc(C)c1-c1cccc(COc2ccc(CCC(=O)O)cc2)c1 [Compound A, 4-([2′,6′-dimethyl-1,1′-biphenyl]-3-ylmethoxy)benzenepropanoic acid]
Increment of plasma insulin level: 42.76 μU/ml
Increment of plasma glucose level: 107.12 mg/dL
plasma glucose level lowering effect: superior plasma glucose level lowering effect
plasma insulin level increasing effect: superior plasma insulin level increasing effect
